Assays:
[1] = tested on: protein pool extracted from murine liver; experiment: In vitro enzyme hydrolysis assay, thin-layer chromatography detection; type: in vitro ADME, mouse; conditions: 1 mg murine liver protein extract, 50 μg compound, 25° C.
Description: In view of what found from the results of Example 29, an in vitro enzyme hydrolysis assay was carried out with the aim of further clarifying which of the synthesized derivatives behaved as alpha-lipoic acid precursors, i.e. as prodrugs able to release alpha-lipoic acid by hydrolysis.
A protein pool extracted from murine liver, containing enzymes able to promote hydrolysis of the compounds of the invention, was used to reintroduce in vitro the hydrolytic activity previously described in the pharmacokinetic studies.
Methodology • The liver of a wild-type mouse was removed; excess blood was removed by washing in phosphate buffer saline (PBS); • Said liver was transferred into a homogenizer with a sufficient amount of lysis buffer (50 mM Tris HCl pH 7.5-8.0; 150 mM NaCl; 5 mM EGTA pH 7.5-8.0; 50 mM NaF pH 8.0; 10% (v/v) glycerol; 1.5 mM MgCl2, 1% Triton X-100) enriched with protease and phosphatase inhibitors (Protease Inhibitor Cocktail; Sigma-Aldrich). 15-20 impacts were applied by the pestle in order to obtain a homogeneous solution; • The entire mixture was left under agitation at +4° C. for 1 hour; after centrifugation at 14000 rpm, the supernatant containing the extracted proteins was recovered; • The amount of extracted protein was determined using the Bradford assay; • The enzymatic hydrolysis reaction was carried out: 1 mg of protein extract for hydrolysing 50 μg of synthesized compound (dissolved in DMSO); 1, 3 or 24 hours at 25° C. under agitation; • The digestion product(s) was/were detected using thin-layer chromatography: mobile phase (60:40:1 of ethyl acetate; n-hexane; acetic acid); silica plate (Sigma-Aldrich); phosphomolybdic reagent; • The digestion products were analyzed and compared with (R)-α-LA (Sigma-Aldrich), and with the non-hydrolysed compound of the invention.
It was, therefore, possible to detect (R)-alpha-lipoic acid as the hydrolysis product and to differentiate it from the enantiomers of the invention.

[2] = Pharmacokinetic study in rats after oral administration of a single dose, HPLC-MS of plasma; type: in vivo; conditions: rat
Description: The bioavailability of some compounds synthesized (Examples 1a, 2, 2a, 3, 3a, 10, 15a, 16a and 24) was studied in rats after oral administration of a single dose (48.5 μmol/kg) and compared with the reference (R)- or (RS)-α-LA.
Each treatment was carried out on groups of 6 male rats (Sprague-Dawley SD rat) per compound. At regular times, blood withdrawals were carried out for the measurement by HPLC-MS of the concentration of plasmatic α-LA (FIGS. 5, 7, 9) and of the residual compound administered (FIGS. 6, 8).

[3] = tested on: HepG2 cells; experiment: Variation in NADPH levels (total NADPH/NADP ratio), spectrophotometric kit; type: cell-based, human; conditions: HepG2 cells, 5, 10, 100 and 500 μM, 72 hours
Source text: Although it is known that under hyperglycemic conditions α-LA induces AMPK activation in hepatic cells, the molecular mechanisms responsible for this biochemical process are not yet known. As envisaged in the description, the inventors of the present invention have advanced the hypothesis that AMPK activation by α-LA is the result of changes in the amount of NADH and NADHP present in cells, due to the interference of α-LA and/or its analogous derivatives in the oxidation-reduction processes. To verify this hypothesis, use was made of commercial kits (by Valter Occhiena) able to analyze the variations in the cellular amounts of NAD(P)H relative to total NAD(P), in the presence of increasing concentrations of the compounds under analysis (total NAD=NADH+NAD^+; total NADP=NADPH+NADP^+).

Row | enzymatic hydrolysis after 24 h (FIG. 3) [1] | amount of (R)-alpha-lipoic acid released after 24 h (FIG. 3) [1] | SMILES | further results
1 | partial hydrolization | reduced release | O=C(CCCC[C@@H]1CCSS1)NCCc1ccccc1 [Example 11, (R)-5-[1,2]dithiolan-3-yl-pentanoic acid phenethyl-amide] | 
2 | partial hydrolization | reduced release | O=C(CCCC[C@@H]1CCSS1)NCCCc1ccccc1 [Example 12, (R)-5-[1,2]dithiolan-3-yl-pentanoic acid(3-phenyl-propyl)-amide] | 
3 | partial hydrolization | reduced release | O=C(CCCC[C@@H]1CCSS1)NCCCCc1ccccc1 [Example 13, (R)-5-[1,2]dithiolan-3-yl-pentanoic acid(4-phenyl-butyl)-amide] | 
4 | partial hydrolization | reduced release | O=C(CCCC[C@@H]1CCSS1)NC1CCCC1 [Example 14, (R)-5-[1,2]dithiolan-3-yl-pentanoic acid cyclopentylamide] | 
5 | partial hydrolization | reduced release | CCCCCNC(=O)CCCC[C@@H]1CCSS1 [Example 19, (R)-5-[1,2]dithiolan-3-yl-pentanoic acid n-pentylamide] | 
6 | remained essentially unaltered |  | CCCCCCCNC(=O)CCCC[C@@H]1CCSS1 [Example 20, (R)-5-[1,2]dithiolan-3-yl-pentanoic acid n-heptylamide] | 
7 | remained essentially unaltered |  | CCC(CC)NC(=O)CCCC[C@@H]1CCSS1 [Example 21, (R)-5-[1,2]dithiolan-3-yl-pentanoic acid pentan-3-ylamide] | 
8 | not completely hydrolysed | very considerable amount | O=C(CCCC[C@@H]1CCSS1)NCc1ccccc1 [Example 22, (R)-5-[1,2]dithiolan-3-yl-pentanoic acid N-benzylamide] | 
9 | not completely hydrolysed | very considerable amount | COc1ccc(CNC(=O)CCCC[C@@H]2CCSS2)cc1O [Example 23, (R)-5-[1,2]dithiolan-3-yl-pentanoic acid N-(3-hydroxy-4methoxybenzyl)amide] | 
10 | not completely hydrolysed | very considerable amount | O=C(CCCC[C@@H]1CCSS1)NCC1CC1 [Example 24, (R)-5-[1,2]dithiolan-3-yl-pentanoic acid N-(cyclopropylmethyl)amide] | 
11 | not completely hydrolysed | very considerable amount | C=CCCNC(=O)CCCC[C@@H]1CCSS1 [Example 25, (R)-5-[1,2]dithiolan-3-yl-pentanoic acid N-(buten-3-yl)amide] | 
12 | remained essentially unaltered |  | CC1CCN(C(=O)CCCC[C@@H]2CCSS2)CC1 [Example 28, (R)-5-[1,2]dithiolan-3-yl-pentanoic acid 1-(4-methylpiperidin-1-yl)amide] | 

The next lines start with the molecule.

Row | SMILES | enzymatic hydrolysis after 24 h (FIG. 3) [1] | amount of (R)-alpha-lipoic acid released after 24 h (FIG. 3) [1] | further results
13 | CC(=O)NCCNC(=O)CCCCC1CCSS1 (racemic) [Example 10a, 5-[1,2]dithiolan-3-yl-pentanoic acid(2-acetylamino-ethyl)-amide] |  |  | melting point: 144.6 to 145.8 °C
14 | O=C(CCCC[C@@H]1CCSS1)N1CCOCC1 [Example 1, (R)-1-morpholin-4-yl-5-[1,2]dithiolan-3-yl-pentan-1-one] | remained essentially unaltered |  | 
15 | CCCCNC(=O)CCCC[C@@H]1CCSS1 [Example 2, (R)-5-[1,2]dithiolan-3-yl-pentanoic acid butylamide] | not completely hydrolysed | very considerable amount | concentration of alpha-lipoic acid in plasma after 30 minutes from administration (FIG. 9) ([2]; shorter treatment intervals (5-30 minutes)): significant concentration; hydrolysis profile in vivo compared with the corresponding racemic compound (FIG. 7 vs FIG. 5) ([2]; single dose 48.5 μmol/kg): more linear hydrolysis profile
16 | O=C(CCCC[C@@H]1CCSS1)NCCCN1CCOCC1 [Example 3, (R)-5-[1,2]dithiolan-3-yl-pentanoic acid(3-morpholin-4-yl-propyl)-amide] |  |  | released alpha-lipoic acid and compound itself in plasma, any withdrawal time ([2]; single dose 48.5 μmol/kg): neither released alpha-lipoic acid nor the compound itself was detected
17 | CCCC(C)NC(=O)CCCC[C@@H]1CCSS1 (stereo partly drawn) [Example 5, (R)-5-[1,2]dithiolan-3-yl-pentanoic acid(1-methyl-butyl)-amide] | remained essentially unaltered |  | 
18 | CNC(=O)CCCC[C@@H]1CCSS1 [Example 6, (R)-5-[1,2]dithiolan-3-yl-pentanoic acid methylamide] | partial hydrolization | reduced release | 
19 | CCCNC(=O)CCCC[C@@H]1CCSS1 [Example 7, (R)-5-[1,2]dithiolan-3-yl-pentanoic acid propylamide] | partial hydrolization | reduced release | 
20 | CC(C)NC(=O)CCCC[C@@H]1CCSS1 [Example 8, (R)-5-[1,2]dithiolan-3-yl-pentanoic acid isopropylamide] | partial hydrolization | reduced release | effect on NADPH levels (FIG. 11) [3]: influenced NADPH levels, in a dose dependent manner
21 | CC(=O)NCCNC(=O)CCCC[C@@H]1CCSS1 [Example 10, (R)-5-[1,2]dithiolan-3-yl-pentanoic acid(2-acetylamino-ethyl)-amide] |  |  | melting point: 144.6 to 145.8 °C
22 | CC(C)(C)C(=O)OCOC(=O)CCCC[C@@H]1CCSS1 [Example 15, (R)-5-[1,2]dithiolan-3-yl-pentanoic acid 2,2-dimethyl-propionyloxymethyl ester] |  |  | enzymatic hydrolysis after 1 h (FIG. 2) [1]: completely hydrolyzed
23 | CCCC(=O)OCOC(=O)CCCC[C@@H]1CCSS1 [Example 16, (R)-5-[1,2]dithiolan-3-yl-pentanoic acid butyryloxymethyl ester] |  |  | enzymatic hydrolysis after 1 h (FIG. 2) [1]: completely hydrolyzed
24 | CC(=O)OC(C)OC(=O)CCCC[C@@H]1CCSS1 (stereo partly drawn) [Example 17, (R)-5-[1,2]dithiolan-3-yl-pentanoic acid 1-acetoxy-ethyl ester] |  |  | enzymatic hydrolysis after 1 h (FIG. 2) [1]: partial hydrolization; enzymatic hydrolysis after 3 h (FIG. 2) [1]: completely hydrolyzed
25 | CC(OC(=O)CCCC[C@@H]1CCSS1)OC(=O)C(C)(C)C (stereo partly drawn) [Example 18, (R)-5-[1,2]dithiolan-3-yl-pentanoic acid 2,2-dimethyl-propionyloxyethyl ester] |  |  | enzymatic hydrolysis after 1 h (FIG. 2) [1]: partial hydrolization; enzymatic hydrolysis after 3 h (FIG. 2) [1]: completely hydrolyzed
26 | COc1ccc(CNC(=O)CCCC[C@@H]2CCSS2)cc1OC(C)=O [Example 27, (R)-5-[1,2]dithiolan-3-yl-pentanoic acid N-(3-acetoxy-4methoxybenzyl)amide] | not completely hydrolysed | very considerable amount | 
